pIC50: −log10 of the molar value.
Columns and labels:
[1] = target: T1, Voltage-gated L-type calcium channel (Homo sapiens, UniProt Q13936+Q13698+Q01668+O60840); assay: Antagonist activity at L-type calcium channel in human mesoangioblast-derived myotube assessed as reduction in KCL-mediated depolarization of cytosolic (Ca2+) increase at 10 uM incubated for 25 mins in presence of KCl by live-cell imaging based analysis
[2] = target: T2, Voltage-dependent L-type calcium channel subunit alpha-1C (Homo sapiens, UniProt Q13936); assay: Antagonist activity at Cav1.2 (unknown origin) stably expressed in HEK293 cells at 10 uM assessed as inhibition of LTCC current by Whole cell patch clamp assay relative to control; type: cell-based; conditions: read-out: Activity
T2 sequence (Q13936 whole entry): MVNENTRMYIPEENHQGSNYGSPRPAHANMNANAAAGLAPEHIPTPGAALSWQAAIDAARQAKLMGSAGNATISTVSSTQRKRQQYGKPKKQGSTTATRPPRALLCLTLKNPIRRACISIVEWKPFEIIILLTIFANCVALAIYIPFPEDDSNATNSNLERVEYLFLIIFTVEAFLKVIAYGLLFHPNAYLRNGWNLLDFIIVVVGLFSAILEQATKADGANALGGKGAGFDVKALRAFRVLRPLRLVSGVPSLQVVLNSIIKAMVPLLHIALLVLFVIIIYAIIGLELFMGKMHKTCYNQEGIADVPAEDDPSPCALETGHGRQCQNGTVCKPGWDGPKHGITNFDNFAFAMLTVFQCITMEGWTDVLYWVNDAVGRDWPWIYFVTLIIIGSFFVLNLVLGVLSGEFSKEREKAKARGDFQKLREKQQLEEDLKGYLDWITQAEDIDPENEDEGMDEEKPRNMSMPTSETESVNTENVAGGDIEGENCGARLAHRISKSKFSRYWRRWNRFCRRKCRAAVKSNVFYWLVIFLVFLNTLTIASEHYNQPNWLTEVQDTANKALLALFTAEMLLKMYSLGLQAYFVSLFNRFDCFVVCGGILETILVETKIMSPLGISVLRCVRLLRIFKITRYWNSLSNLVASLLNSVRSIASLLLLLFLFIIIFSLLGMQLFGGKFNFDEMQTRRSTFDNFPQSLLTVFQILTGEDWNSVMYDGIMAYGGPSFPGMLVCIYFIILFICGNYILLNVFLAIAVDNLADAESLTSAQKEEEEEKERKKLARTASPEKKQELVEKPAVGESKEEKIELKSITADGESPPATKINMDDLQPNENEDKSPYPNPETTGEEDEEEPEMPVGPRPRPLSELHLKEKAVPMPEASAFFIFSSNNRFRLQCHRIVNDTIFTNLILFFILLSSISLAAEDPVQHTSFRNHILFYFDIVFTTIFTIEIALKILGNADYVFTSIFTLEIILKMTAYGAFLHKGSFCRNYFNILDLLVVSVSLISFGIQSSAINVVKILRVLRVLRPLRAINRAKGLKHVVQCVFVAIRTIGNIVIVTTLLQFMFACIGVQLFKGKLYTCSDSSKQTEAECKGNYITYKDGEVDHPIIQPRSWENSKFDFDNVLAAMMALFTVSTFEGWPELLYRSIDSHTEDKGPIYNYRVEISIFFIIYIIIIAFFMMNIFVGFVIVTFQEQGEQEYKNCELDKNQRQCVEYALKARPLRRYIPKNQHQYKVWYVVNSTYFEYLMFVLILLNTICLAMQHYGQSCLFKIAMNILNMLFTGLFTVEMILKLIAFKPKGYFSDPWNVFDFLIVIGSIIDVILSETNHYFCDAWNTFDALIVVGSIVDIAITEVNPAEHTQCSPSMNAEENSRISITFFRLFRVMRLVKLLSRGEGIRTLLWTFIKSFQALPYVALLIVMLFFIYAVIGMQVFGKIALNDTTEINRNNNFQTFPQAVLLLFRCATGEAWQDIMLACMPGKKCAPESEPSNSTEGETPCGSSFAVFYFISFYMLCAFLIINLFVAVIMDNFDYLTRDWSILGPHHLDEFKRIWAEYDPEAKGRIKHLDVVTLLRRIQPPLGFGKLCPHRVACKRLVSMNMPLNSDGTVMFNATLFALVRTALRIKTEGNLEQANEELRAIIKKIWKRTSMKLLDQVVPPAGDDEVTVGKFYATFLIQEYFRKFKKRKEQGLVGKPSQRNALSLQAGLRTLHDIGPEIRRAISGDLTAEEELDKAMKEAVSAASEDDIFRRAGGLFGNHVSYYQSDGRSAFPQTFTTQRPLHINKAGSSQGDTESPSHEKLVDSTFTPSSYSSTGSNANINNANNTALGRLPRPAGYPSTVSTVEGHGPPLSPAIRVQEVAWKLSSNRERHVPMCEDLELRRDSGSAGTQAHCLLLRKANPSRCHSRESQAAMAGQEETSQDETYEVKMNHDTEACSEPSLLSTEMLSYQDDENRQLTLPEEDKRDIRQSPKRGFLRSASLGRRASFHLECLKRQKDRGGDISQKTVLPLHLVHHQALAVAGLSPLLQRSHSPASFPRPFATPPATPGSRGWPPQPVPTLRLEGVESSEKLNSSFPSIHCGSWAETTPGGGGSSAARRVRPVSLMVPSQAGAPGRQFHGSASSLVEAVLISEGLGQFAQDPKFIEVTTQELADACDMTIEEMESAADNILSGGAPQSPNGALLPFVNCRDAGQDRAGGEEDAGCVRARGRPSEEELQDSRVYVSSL

[3] = target: T2, Voltage-dependent L-type calcium channel subunit alpha-1C; assay: Antagonist activity at Cav1.2 (unknown origin) stably expressed in HEK293 cells assessed as inhibition of LTCC current by Whole cell patch clamp assay; type: cell-based; conditions: for Activity: human, hek293
[4] = target: T1, Voltage-gated L-type calcium channel; assay: Antagonist activity at L-type calcium channel in Ca1520-loade human SH-SY5Y cells assessed as inhibition of KCL-mediated depolarization of cytosolic (Ca2+) increase incubated for 5 mins in presence of KCl by live-cell imaging based analysis
[5] = target: T2, Voltage-dependent L-type calcium channel subunit alpha-1C; assay: Binding affinity to GFP-tagged Cav1.2alpha 1C (unknown orign) transfected with human HeLa cells assessed as increase in fluorescence intensity at 50 nM incubated for 5 mins by fluorescence based confocal microscopy analysis; type: cell-based; conditions: 0.05 µM
[6] = target: T2, Voltage-dependent L-type calcium channel subunit alpha-1C; assay: Binding affinity to GFP-tagged Cav1.2alpha 1C (unknown orign) transfected with human HeLa cells assessed as increase in fluorescence intensity at 25 to 100 nM in presence of nifedipine by fluorescence based confocal microscopy analysis; type: cell-based; conditions: dose 25-100 nM
[7] = target: T2, Voltage-dependent L-type calcium channel subunit alpha-1C; assay: Binding affinity to GFP-tagged Cav1.2alpha 1C (unknown orign) transfected with human HeLa cells assessed as increase in fluorescence intensity in cytoplasm at 25 to 100 nM in presence of nifedipine by fluorescence based confocal microscopy analysis; type: cell-based; conditions: dose 25-100 nM
[8] = target: T1, Voltage-gated L-type calcium channel; assay: Binding affinity to LTCC in endogenously expressing human SH-SY5Y cells assessed as increase in fluorescence intensity at 50 to 100 nM in presence of nifedipine by fluorescence based confocal microscopy analysis; type: cell-based; conditions: dose 50-100 nM

| Structure (SMILES) | Activity [1] | inhibition at 10 µM [2] [%] | pIC50 [3] | also measured |
| --- | --- | --- | --- | --- |
| COC(=O)C1=C(C)NC(C)=C(C(=O)OCCCCCCCCNC(=O)CCCCC[N+]2=C(/C=C/C=C/C=C3/N(C)c4ccccc4C3(C)C)C(C)(C)c3ccccc32)C1c1cccc(Cl)c1Cl (stereo unspecified) | Active | 46 | – | Activity [3]: Not Active |
| COC(=O)C1=C(C)NC(C)=C(C(=O)OCCOCCNC(=O)CCCCC[N+]2=C(/C=C/C=C/C=C3N(C)c4ccccc4C3(C)C)C(C)(C)c3ccccc32)[C@@H]1c1cccc(Cl)c1Cl | Active | 70 | 5.19 | – |
| COC(=O)C1=C(C)NC(C)=C(C(=O)OCCOCCNC(=O)CCCCC[N+]2=C(/C=C/C=C/C=C3/N(C)c4ccccc4C3(C)C)C(C)(C)c3ccccc32)C1c1ccccc1[N+](=O)[O-] (stereo unspecified) | Active | 83 | 5.66 | – |
| COC(=O)C1=C(C)NC(C)=C(C(=O)OCCCCCCNC(=O)CCCCC[N+]2=C(/C=C/C=C/C=C3/N(C)c4ccccc4C3(C)C)C(C)(C)c3ccccc32)C1c1ccccc1[N+](=O)[O-] (stereo unspecified) | Active | 52 | 4.90 | – |
| COC(=O)C1=C(C)NC(C)=C(C(=O)OCCNC(=O)CCCCC[N+]2=C(/C=C/C=C/C=C3/N(C)c4ccccc4C3(C)C)C(C)(C)c3ccccc32)C1c1cccc(Cl)c1Cl (stereo unspecified) | Active | 72 | 5.37 | – |
| COC(=O)C1=C(C)NC(C)=C(C(=O)OCCCCCCNC(=O)CCCCC[N+]2=C(/C=C/C=C/C=C3/N(C)c4ccccc4C3(C)C)C(C)(C)c3ccccc32)C1c1cccc(Cl)c1Cl (stereo unspecified) | Active | 50 | 4.90 | – |
| COC(=O)C1=C(C)NC(C)=C(C(=O)OCCOCCNC(=O)CCCCC[N+]2=C(/C=C/C=C/C=C3\N(C)c4ccccc4C3(C)C)C(C)(C)c3ccccc32)[C@H]1c1cccc(Cl)c1Cl | Active | 94 | 6.19 | IC50 [4]: 1.08 µM; Activity ([4]; human, 5 min, dose 0.1-10000 nM): Dose-Dependent Effect; Activity [5]: Active; Activity [6]: Not Active; Activity [7]: Not Active; Activity [8]: Not Active |
| COC(=O)C1=C(C)NC(C)=C(C(=O)OCCOCCOCCNC(=O)CCCCC[N+]2=C(/C=C/C=C/C=C3\N(C)c4ccccc4C3(C)C)C(C)(C)c3ccccc32)C1c1cccc(Cl)c1Cl (stereo unspecified) | Active | 77 | 5.46 | – |
| COC(=O)C1=C(C)NC(C)=C(C(=O)OCCOCCNC(=O)CCCCC[N+]2=C(/C=C/C=C/C=C3/N(C)c4ccccc4C3(C)C)C(C)(C)c3ccccc32)C1c1cccc(Cl)c1Cl (stereo unspecified) | Active | 62 | 5.13 | – |
| COC(=O)C1=C(C)NC(C)=C(C(=O)OCCCCCCCCNC(=O)CCCCC[N+]2=C(/C=C/C=C/C=C3/N(C)c4ccccc4C3(C)C)C(C)(C)c3ccccc32)C1c1ccccc1[N+](=O)[O-] (stereo unspecified) | Active | 87 | 5.72 | – |
| COC(=O)C1=C(C)NC(C)=C(C(=O)OCCCCCCNC(=O)CCCCCNC(=O)Oc2ccc(/C=C/C3=[N+]4C(=Cc5ccc(-c6cccs6)n5[B-]4(F)F)C=C3)cc2)C1c1cccc(Cl)c1Cl (stereo unspecified) | Not Active | 24 | – | Activity [3]: Not Active |
| COC(=O)C1=C(C)NC(C)=C(C(=O)OCCOCCNC(=O)CCCCC[N+]2=C(/C=C/C=C/C=C3/N(C)c4ccccc4C3(C)C)C(C)(C)c3ccccc32)C1c1ccccc1OS(=O)(=O)F (stereo unspecified) | Active | 88 | 5.82 | – |
| COC(=O)C1=C(C)NC(C)=C(C(=O)OCCOCCNC(=O)CCCCC[N+]2=C(/C=C/C=C/C=C3/N(C)c4ccccc4C3(C)C)C(C)(C)c3ccccc32)C1c1ccccc1/C=C/C(=O)OC(C)(C)C (stereo unspecified) | Active | 97 | 5.97 | – |
| COC(=O)C1=C(C)NC(C)=C(C(=O)OC)C1c1ccccc1[N+](=O)[O-] [NIFEDIPINE] | – | 102 | – | – |
